Source: PMC11201061, “Mechanistic Study of Antimicrobial Effectiveness of Cyclic Amphipathic Peptide [R4W4] against Methicillin-Resistant Staphylococcus aureus Clinical Isolates” (Antibiotics, 2024)
In brackets after ≈: the same amount, converted by molar mass. Counter-ions that a name gives are not always drawn. Like-named read-outs stand apart in the source and are kept apart here. Where a SMILES comes first, the peptide text is derived from it.

Assays:
MRSA USA300 [1] = test: microbe, parasite or virus in culture; settings: for MIC: Staphylococcus aureus
Protocol: The interaction of [R4W4], melittin, and vancomycin with LTA in the presence of MRSA was determined using a microbroth dilution assay. Two-fold serial dilution was used to achieve a 100 μL final concentration of the antibacterial agents in a 96 microplate well. A 360 μL S. aureus LTA (Sigma Aldrich stock 5 mg/mL) was added to 17.64 mL MHB containing MRSA (5 x 10^5 CFU/mL) to achieve the final concentration of S. aureus LTA 100 μg/mL. Then, 100 μL aliquots of MHB (MRSA (5 × 10^5 CFU/mL) and 100 μg/mL S. aureus LTA) were added to the 96 microtiter wells containing the antibacterial agents. The microplate was incubated overnight at 37 °C to obtain the MICs. Controls were bacteria grown in the presence of LTA alone and in MHB alone.

C. difficile 9689 = test: microbe, parasite or virus in culture; type: cell-based, Clostridioides difficile; settings: for MBC/MIC: C. difficile ATCC 9689, stool isolate
Protocol: (§1) To determine whether the antibacterial activity of [R4W4] is bacteriostatic or bactericidal against clinical isolates of multidrug-resistant bacterial isolates, MIC and MBC were determined using the microbroth dilution method. Bacteriostatic activity was defined as a ratio of the MBC/MIC greater than four and bactericidal activity as MBC/MIC ratio ≤ 4 [33]. We added aliquots of test samples (256 μg/mL concentration of [R4W4] or vancomycin as a control prepared in TSB) to the first well of microplates. MHB media was added to the remaining wells. Two-fold serial dilutions were performed, starting with the highest drug concentration in well 1, and the dilution process continued. A bacterial aliquot of 1/150 dilution was prepared with a 0.5 McFarland standard solution from an overnight culture of the tested bacteria isolate. Bacteria were added to the microplate and placed into wells with the drug dilutions. The microplates were incubated overnight for 24 h at 37 °C. [R4W4] was synthesized and purified, as reported earlier.

[2] = tested on: Enterococcus faecium (VRE); type: cell-based; settings: urine isolate
Protocol: as §1

[3] = tested on: bacterial isolates (nine MRSA, B. subtilis, C. difficile, VRE); type: cell-based; settings: for bacteriostatic or bactericidal (Pankey's definition, MBC/MIC ≤ 4 bactericidal): all tested bacterial isolates; for MBC increase over MIC values: all the strains tested
Protocol: as §1

MRSA LAC [4] = settings: for % Reduction in viable bacteria / Lethal rate (LR), log10 reduction: MRSA LAC in MHB; for viable bacteria at 26 h: MRSA LAC; for % reduction in viable bacteria over 1 × MIC, 2 × MIC and 4 × MIC: MRSA in MHB, range over the three concentrations
Protocol: The MRSA Los Angeles County (LAC) USA300 strain was cultured from −80 °C freezer stock and inoculated on an agar plate overnight. Two bacteria colonies were inoculated in MH broth overnight at 37 °C with shaking at 200 rpm. An aliquot was added to normal saline to achieve a 0.5 McFarland Standard suspension and then diluted 1:150 with MHB. The bacteria sample was plated on an agar plate at time zero. The test samples were prepared by adding [R4W4] or vancomycin to bacteria to achieve the final sample concentration of (1 × MIC, 2 × MIC, 4 × MIC) using media without antibacterial agents as positive control.
[…] The samples were diluted to minimize excessive CFU counts. The inoculated plates were incubated at 37 °C overnight. The surviving organisms were determined by counting colonies as CFU/plate. The average duplicate counts were multiplied by the dilution factors to arrive at CFU/mL. The microbial reduction was calculated by converting the count to log10 scale. The Log CFU/mL was plotted against time for different antibacterial concentrations.

MRSA LAC [5] = test: microbe, parasite or virus in culture; type: cell-based, Staphylococcus aureus; settings: for MIC: Staphylococcus aureus, MRSA
Protocol: The effects of cations on the antimicrobial activity of [R4W4] were determined against MRSA using vancomycin as a control. The bacteria aliquots were treated with MHB media containing the final concentration of sodium chloride (NaCl) (150, 75, 37.5, and 18.75 mM), calcium chloride (CaCl2) (8, 4, 2, and 1 mM), and ferric chloride (FeCl3) (1, 4, and 8 µM) in 96 well microplates. The MIC of [R4W4] and vancomycin were determined to determine whether there were changes in the MIC values when treated with different salt concentrations.

MRSA USA300 [6] = test: microbe, parasite or virus in culture; settings: for MIC against index isolate (no serial passage): MRSA USA300 index strain
Protocol: MRSA USA300 bacteria from −80 °C freezer stock were cultured on an LB agar plate overnight. One bacteria colony was added to a 6 mL fresh MHB with constant shaking at 200 rpm at 37 °C. The bacteria were transferred daily by inoculating 10 μL of stationary-phase culture into […] of MHB in a 1 mL cap-clipped Eppendorf tube. Then, 20 μL of bacteria aliquot was added to […] of MHB broth, with or without [R4W4], at a final concentration of the MIC overnight in an […] at 37 °C for five transfers. […] […] Experiments were performed in triplicates. Every time we increased the concentration of [R4W4], a sample of the induction generation was inoculated into 20% (vol/vol) glycerol and stored at −70 °C. The final MIC values of [R4W4], vancomycin, and levofloxacin were determined by modified microbroth dilution assay.

In the case of N=C(N)NCCC[C@@H]1NC(=O)[C@H](CCCNC(=N)N)NC(=O)[C@H](CCCNC(=N)N)NC(=O)[C@H](Cc2c[nH]c3ccccc23)NC(=O)[C@H](Cc2c[nH]c3ccccc23)NC(=O)[C@H](Cc2c[nH]c3ccccc23)NC(=O)[C@H](Cc2c[nH]c3ccccc23)NC(=O)[C@H](CCCNC(=N)N)NC1=O [[R4W4]] (cyclo(RRRRWWWW)), the “MIC in the presence of LTA” value (MRSA USA300 [1]; MRSA USA300, 100 μg/mL S. aureus LTA in MHB, overnight 37 °C, duplicate) is reported as 8 µg/mL, the “MIC in the absence of LTA” value (MRSA USA300 [1]; MRSA USA300, MHB, overnight 37 °C, duplicate) is reported as 8 µg/mL and the MBC (C. difficile 9689; 9689, 24 h) is reported as 4 µg/mL (≈ 2.92 µM). For the same compound, the MIC (C. difficile 9689; 9689, 24 h) was 2 µg/mL (≈ 1.46 µM), the MBC/MIC (C. difficile 9689) was 2 and the MBC/MIC [2] was 4. For the same compound, the “MIC range, MRSA clinical isolates from the blood” value ([3]; 24 h) was 2 to 4 µg/mL, the “MIC range, MRSA clinical isolates from the lungs” value ([3]; 24 h) was 16 to 32 µg/mL and the “bacteriostatic or bactericidal (Pankey's definition, MBC/MIC ≤ 4 bactericidal)” value [3] was “bactericidal”. The “MBC increase over MIC values” [3] was 2–4 fold, the “% Reduction in viable bacteria” value (MRSA LAC [4]; 1 × MIC, 100 × (1 − 10^−LR)) was 99.67% and the “% Reduction in viable bacteria” value (MRSA LAC [4]; 2 × MIC) was 99.78%. For the same compound, the “Lethal rate (LR), log10 reduction” value (MRSA LAC [4]; 2 × MIC) was 2.65, the “% Reduction in viable bacteria” value (MRSA LAC [4]; 4 × MIC) was 99.87% and the “Lethal rate (LR), log10 reduction” value (MRSA LAC [4]; 4 × MIC) was 2.89. For the same compound, the “viable bacteria at 26 h” value (MRSA LAC [4]; 4 × MIC) was “bacteria remaining viable up to 26 h”, the “% reduction in viable bacteria over 1 × MIC, 2 × MIC and 4 × MIC” value (MRSA LAC [4]) was 99.67–99.87% and the “MIC in the presence of sodium chloride” value (MRSA LAC [5]; LAC) was 6 to 8 µg/mL. For the same compound, the “MIC under normal physiological conditions” value (MRSA LAC [5]; MRSA LAC, MHB without added salt) was 4 µg/mL, the “MIC in the presence of ferric chloride” value (MRSA LAC [5]; MRSA LAC, FeCl3 1, 2, 4 and 8 μM) was “increases proportionally with the concentration of ferric chloride” and the “final [R4W4] concentration at which growth was achieved at the end of serial passage” value (MRSA USA300 [6]; MRSA USA300, 35 passages, stepwise increasing concentration) was 32 µg/mL. For the same compound, the “MIC against serial passaged [R4W4]-resistant isolate” value (MRSA USA300 [6]; MRSA USA300 after serial passage in [R4W4], MIC in duplicate) was 16 µg/mL (≈ 11.7 µM) and the “MIC against index isolate (no serial passage)” value (MRSA USA300 [6]; MIC in duplicate) was 4 µg/mL (≈ 2.92 µM).

CN[C@H](CC(C)C)C(=O)N[C@H]1C(=O)N[C@@H](CC(N)=O)C(=O)N[C@H]2C(=O)N[C@H]3C(=O)N[C@H](C(=O)N[C@H](C(=O)O)c4cc(O)cc(O)c4-c4cc3ccc4O)[C@H](O)c3ccc(c(Cl)c3)Oc3cc2cc(c3O[C@@H]2O[C@H](CO)[C@@H](O)[C@H](O)[C@H]2O[C@H]2C[C@](C)(N)[C@H](O)[C@H](C)O2)Oc2ccc(cc2Cl)[C@H]1O [Vancomycin, Vancomycin Hydrochloride, reference compound] showed an MIC (MRSA USA300 [1]; read-out: MIC in the absence of LTA) of 2 µg/mL, an MIC (MRSA USA300 [1]; read-out: MIC in the presence of LTA) of 2 µg/mL and an MBC/MIC (C. difficile 9689) of 2. The MBC (C. difficile 9689; Clostridioides difficile, ATCC9689) was 1 µg/mL, the MIC (C. difficile 9689; Clostridioides difficile, ATCC9689, 24 h) was 0.5 µg/mL and the MIC ([2]; microbroth dilution, 24 h, 37 °C, averages of triplicates of three different experiments, N/A = not active) was “not active”. The “bacteriostatic or bactericidal (Pankey's definition, MBC/MIC ≤ 4 bactericidal)” value [3] was “bactericidal”, the “MBC increase over MIC values” [3] was 2–4 fold and the “Lethal rate (LR), log10 reduction” value (MRSA LAC [4]; 1 × MIC ([R4W4] 4 µg/mL, vancomycin 1 µg/mL)) was 1.02. The “% Reduction in viable bacteria” value (MRSA LAC [4]; 1 × MIC, 100 × (1 − 10^−LR)) was 90.50%, the “% Reduction in viable bacteria” value (MRSA LAC [4]; 1 × MIC, 100 × (1 − 10^−LR), listed as vancomycin) was greater than 90% and the “% Reduction in viable bacteria” value (MRSA LAC [4]; 2 × MIC) was 98.98%. The “Lethal rate (LR), log10 reduction” value (MRSA LAC [4]; 2 × MIC) was 1.99, the “% Reduction in viable bacteria” value (MRSA LAC [4]; 4 × MIC) was 99.58% and the “Lethal rate (LR), log10 reduction” value (MRSA LAC [4]; 4 × MIC) was 2.37. For the same compound, the “viable bacteria at 26 h” value (MRSA LAC [4]; 4 × MIC) was “no viable bacteria were recovered at 26 h”, the “% reduction in viable bacteria over 1 × MIC, 2 × MIC and 4 × MIC” value (MRSA LAC [4]) was 90.50–99.58% and the MIC (MRSA LAC [5]; read-out: MIC in the presence of calcium chloride) was 0.75 µg/mL. The MIC (MRSA LAC [5]; read-out: MIC in the presence of ferric chloride) was 0.625 to 1.25 µg/mL, the MIC (MRSA LAC [5]; read-out: MIC in the presence of sodium chloride) was 1 to 2 µg/mL and the MIC (MRSA LAC [5]; read-out: MIC under normal physiological conditions) was 1 µg/mL. The “MIC against index isolate (no serial passage)” value (MRSA USA300 [6]; MIC in duplicate) was 0.5 µg/mL, the “change in MIC after serial passage” value (MRSA USA300 [6]; MRSA USA300 passaged versus index strain) was 4 folds and the MIC (MRSA USA300 [6]; Staphylococcus aureus, MRSA|USA300, read-out: MIC against serial passaged [R4W4]-resistant isolate) was 4 µg/mL.
